ChEMBL document CHEMBL4392829, “Synthesis and biological evaluation of 3-substituted 2-oxindole derivatives as new glycogen synthase kinase 3β inhibitors” (Bioorg Med Chem, 2019)
The source made the active and inactive calls. The calls are words filed in the database; no cut-off is given here.

Columns and labels:
[1] = test system: PBMC; assay: Cytotoxicity against human PBMC assessed as reduction in cell viability at 0.1 to 10 uM measured after 24 hrs by MTT assay; assay type: cell-based
[2] = test system: A549; assay: Cytotoxicity against human A549 cells assessed as reduction in cell viability measured after 72 hrs by MTT assay; assay type: cell-based
[3] = target: Glycogen synthase kinase-3 beta (Homo sapiens, UniProt P49841); assay: Inhibition of recombinant human GSK3beta using YRRAAVPPSPSLSRHSSPHQ(pS)EDEEE as substrate measured after 60 mins by ADP-Glo luminescence assay
Sequence of Glycogen synthase kinase-3 beta (P49841 whole entry): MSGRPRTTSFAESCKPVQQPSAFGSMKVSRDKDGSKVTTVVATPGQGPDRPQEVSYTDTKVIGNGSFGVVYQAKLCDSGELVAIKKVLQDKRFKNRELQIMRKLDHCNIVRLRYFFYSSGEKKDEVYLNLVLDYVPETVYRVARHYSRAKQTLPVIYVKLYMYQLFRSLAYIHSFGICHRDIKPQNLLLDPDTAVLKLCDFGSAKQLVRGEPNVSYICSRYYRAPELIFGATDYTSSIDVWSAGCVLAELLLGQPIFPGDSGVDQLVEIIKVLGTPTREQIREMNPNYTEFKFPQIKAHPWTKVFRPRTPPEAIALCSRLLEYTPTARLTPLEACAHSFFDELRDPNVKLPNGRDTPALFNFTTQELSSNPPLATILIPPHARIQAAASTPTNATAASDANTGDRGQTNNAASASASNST

[4] = test system: Rattus norvegicus; assay: Antidiabetic activity in […]/STZ-induced obese type-2 diabetes Wistar rat model assessed as reduction in blood glucose level at 50 mg/kg, ip pretreated for 30 mins followed by glucose challenge and measured up to 120 mins by OGTT; assay type: functional, organism-based
[5] = test system: Rattus norvegicus; assay: Antidiabetic activity in […]/STZ-induced obese type-2 diabetes Wistar rat model assessed as reduction in blood glucose level at 10 mg/kg, ip pretreated for 30 mins followed by glucose challenge and measured up to 120 mins by OGTT; assay type: functional, organism-based
[6] = test system: PBMC; assay: Cytotoxicity against human PBMC assessed as reduction in cell viability at 10 uM measured after 24 hrs by MTT assay; assay type: cell-based
[7] = Homo sapiens, A549, 72 h, read-out: IC50

| SMILES | IC50 [3] | IC50 [2, 7] | further results |
| --- | --- | --- | --- |
| COC(=O)Nc1ccc2c(c1)/C(=C/c1ccc(O)cc1)C(=O)N2 |  |  | Activity [1]: Non-Toxic; IC50 ([2]; a549, read-out: IC50): 44.4 µM |
| O=C1Nc2ccc([N+](=O)[O-])cc2/C1=C\c1ccccn1 | 20 µM |  | IC50 ([2]; a549): Non-Toxic |
| CC[C@@]1(O)C(=O)OCc2c1cc1n(c2=O)Cc2cc3ccccc3nc2-1 [CAMPTOTHECIN] |  | 3.32 µM |  |
| O=C1Nc2ccc(Br)cc2/C1=C\c1ccccn1 | > 10 µM | 90.6 µM |  |
| COc1cc(/C=C2\C(=O)Nc3ccc(NC(C)=O)cc32)cc(OC)c1OC |  |  | Activity [1]: Non-Toxic; IC50 ([2]; a549, read-out: IC50): 149 µM |
| O=C1Nc2ccc(Br)cc2C1=Cc1ccncc1 (mixture of isomers) | > 10 µM | 22.3 µM |  |
| COC(=O)Nc1ccc2c(c1)C(=Cc1ccc([N+](=O)[O-])cc1)C(=O)N2 (mixture of isomers) |  |  | Activity [1]: Non-Toxic; IC50 ([2]; a549, read-out: IC50): > 100 µM |
| O=C1Nc2ccccc2/C1=C/c1ccccn1 | 0.00419 µM | 48 µM | Activity [4]: Active; Activity [1]: Non-Toxic |
| O=C1Nc2ccc(Br)cc2C1=Cc1cccnc1 (mixture of isomers) | > 10 µM | 31.4 µM |  |
| N#C[C@@H]1CCCN1C(=O)CNC12CC3CC(CC(O)(C3)C1)C2 |  |  | Activity [5]: Active |
| O=C1Nc2ccc(NC(=O)c3ccccc3)cc2/C1=C/c1ccc(O)cc1 | 4.34 µM |  | Activity [6]: Toxic; IC50 ([2]; a549, read-out: IC50): 412 µM |
| O=C1Nc2ccccc2/C1=C/c1ccco1 | > 10 µM | 595 µM |  |
| N#CCC1(O)C(=O)Nc2ccc(NC(=O)c3ccccc3)cc21 (stereo not given) | > 10 µM |  |  |
| COc1ccc(C(=O)CC2(O)C(=O)Nc3ccccc32)cc1 (stereo not given) | > 10 µM | > 100 µM |  |
| COc1ccc(C(=O)CC2(O)C(=O)Nc3ccc(Br)cc32)cc1 (stereo not given) | > 10 µM | 474 µM |  |
| COc1ccc2c(c1)/C(=C/C(=O)O)C(=O)N2 | > 10 µM |  |  |
| Cc1ccc(C(=O)CC2(O)C(=O)Nc3ccccc32)cc1 (stereo not given) | > 10 µM | 171 µM |  |
| O=C1Nc2ccc([N+](=O)[O-])cc2C1=Cc1cccnc1 (mixture of isomers) | > 10 µM |  | IC50 ([2]; a549, read-out: IC50): 429 µM |
| O=C1Nc2ccccc2C12CC2c1ccccn1 (stereo not given) | 1.23 µM | > 100 µM | Activity [1]: Non-Toxic |

| SMILES | IC50 [3] | IC50 [2, 7] | further results |
| --- | --- | --- | --- |
| COC(=O)Nc1ccc2c(c1)/C(=C/c1ccc(Br)cc1)C(=O)N2 | > 10 µM | > 100 µM |  |
| O=C1Nc2ccc(Br)cc2C1=Cc1ccco1 (mixture of isomers) | > 10 µM | 449 µM |  |
| CC(=O)Nc1ccc2c(c1)/C(=C/c1cccc(O)c1)C(=O)N2 | > 10 µM | 176 µM |  |
| O=C1Nc2ccc([N+](=O)[O-])cc2C1=Cc1ccncc1 (mixture of isomers) | > 10 µM |  | IC50 ([2]; a549): Non-Toxic |
| O=C1Nc2ccc([N+](=O)[O-])cc2/C1=C/c1ccco1 | 12.8 µM |  | IC50 ([2]; a549, read-out: IC50): 329 µM |
| Cc1ccc(C(=O)CC2(O)C(=O)Nc3ccc(Br)cc32)cc1 (stereo not given) | > 10 µM | > 100 µM |  |
| CC(=O)Nc1ccc2c(c1)C(CC(=O)O)(OC(C)=O)C(=O)N2 (stereo not given) | > 10 µM |  |  |
| COc1ccc2c(c1)/C(=C/C#N)C(=O)N2Cc1ccccc1 | > 10 µM |  |  |
| COc1cccc2c1C(=O)c1c(O)c3c(c(O)c1C2=O)C[C@@](O)(C(=O)CO)C[C@@H]3O[C@H]1C[C@H](N)[C@H](O)[C@H](C)O1 [DOXORUBICIN] |  | 0.17 µM |  |
| COc1cc(NC(C)=O)c2c(c1)C(CC#N)(OC(C)=O)C(=O)N2 (stereo not given) | > 10 µM |  |  |
| O=C1Nc2ccccc2/C1=C/c1cccs1 | > 10 µM | 491 µM |  |
| O=C1Nc2ccccc2C1=Cc1cccnc1 (mixture of isomers) | > 10 µM |  | IC50 ([2]; a549, read-out: IC50): 67.5 µM |
| COc1cccc2c1C(=O)c1c(O)c3c(c(O)c1C2=O)C[C@@](O)(C(C)=O)C[C@@H]3O[C@H]1C[C@H](N)[C@H](O)[C@H](C)O1 [DAUNORUBICIN] |  | 0.15 µM |  |
| COc1ccc2c(c1)C(O)(CC(=O)c1ccc(C)cc1)C(=O)N2 (stereo not given) | > 10 µM | > 100 µM |  |
| Cc1ccc(C(=O)/C=C2\C(=O)Nc3ccccc32)cc1 | > 10 µM | 18.7 µM |  |
| O=C1Nc2ccc(Br)cc2C1=Cc1cccs1 (mixture of isomers) | > 10 µM | 427 µM |  |
| CCC(=O)Nc1cc(NC(=O)CC)c2c(c1)C(CC#N)(OC(=O)CC)C(=O)N2 (stereo not given) | > 10 µM |  |  |
| O=C1Nc2ccc(Br)cc2C1=Cc1ccc(Br)cc1 (mixture of isomers) | > 10 µM | 242 µM |  |
| O=C1Nc2ccccc2C1=Cc1ccncc1 (mixture of isomers) | > 10 µM | 80.3 µM |  |
